Test results as given in patent US10975083B2, “Blood-brain barrier-penetrant dopamine-β-hydroxylase inhibitors” (BIAL—PORTELA & Cᵃ, S.A., priority 2016, dated 2021).
Read-outs that look alike come from different tables or passages of the source.

Molecular target: T1, DβH (Homo sapiens, UniProt P09172)
T1 construct: reaction mixture (total volume 500 μl) contained: cellular homogenate (75 μg total protein); host or cells: SK-N-SH cell homogenate
T1 sequence (P09172 1-617): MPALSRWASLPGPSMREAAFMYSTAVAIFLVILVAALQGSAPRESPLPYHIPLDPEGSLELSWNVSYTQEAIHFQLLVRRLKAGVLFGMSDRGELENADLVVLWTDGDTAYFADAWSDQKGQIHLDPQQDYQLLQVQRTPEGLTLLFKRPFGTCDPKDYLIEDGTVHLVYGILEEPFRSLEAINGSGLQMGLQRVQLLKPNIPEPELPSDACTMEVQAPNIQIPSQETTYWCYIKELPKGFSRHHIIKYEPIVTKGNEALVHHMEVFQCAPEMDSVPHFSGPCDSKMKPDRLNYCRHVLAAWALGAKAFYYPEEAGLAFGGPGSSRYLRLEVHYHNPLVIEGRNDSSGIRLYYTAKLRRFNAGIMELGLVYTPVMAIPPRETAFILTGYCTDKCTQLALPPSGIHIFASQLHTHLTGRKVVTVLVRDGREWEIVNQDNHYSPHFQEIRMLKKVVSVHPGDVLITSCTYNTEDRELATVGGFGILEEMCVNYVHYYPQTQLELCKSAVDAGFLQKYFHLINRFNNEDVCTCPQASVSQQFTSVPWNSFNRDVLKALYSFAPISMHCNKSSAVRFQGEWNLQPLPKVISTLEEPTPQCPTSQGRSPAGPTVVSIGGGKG
Experiment: DβH inhibition cell assay (SK-N-SH cellular homogenates, tyramine to octopamine)
Assay type: biochemical
Settings: for remaining activity at 0.1 µM: inhibitor 0.1 μM, read-out: DβH activity in % of Ctrl (0.1 μM); for remaining activity at 1 µM: read-out: DβH activity in % of Ctrl (1 μM); for remaining activity at 10 µM: inhibitor 10 μM, read-out: DβH activity in % of Ctrl (10 μM)
Experimental: The ability of a compound to inhibit DβH activity may be assessed using the following cell assay. […] . […] Fetal bovine serum was removed from cells for 4 h prior to collection.
For the preparation of cellular homogenates, media was removed and cell monolayers were washed with 50 mM Tris-HCl pH 7.4. Cells were subsequently scrapped off the flasks and were resuspended in 50 mM Tris pH 7.4. Cell suspensions were homogenized with SilentCrusher M (Heidolph) for a short stroke and resultant homogenates were aliquoted and stored frozen at −80° C.
Total protein was quantified in cellular homogenates with BioRad Protein Assay (BioRad) using a standard curve of BSA (50-250 μg/mL).
DβH activity was measured by a modification of the method of Nagatsu and Udenfriend (Nagatsu, T. and S. Udenfriend: “Photometric assay of dopamine-hydroxylase activity in human blood.” Clin. Chem. 18(9): 980-3, 1972) which is based on the enzymatic hydroxylation of tyramine into octopamine. The octopamine formed is subsequently oxidized to p-hydroxybenzaldehyde and measured by spectrophotometry. In brief, reaction mixture (total volume 500 μl) contained: cellular homogenate (75 μg total protein) sodium acetate pH 5.0 (200 mM), NEM (30 mM), CuSO4 (5 μM), catalase aqueous solution (0.5 mg/mL), pargyline-HCl (1 mM), sodium fumarate (10 mM), ascorbic acid (10 mM), inhibitor or vehicle and tyramine (25 mM). After a 10 min pre-incubation period at 37° C., the reaction was initiated by the addition of tyramine. Reaction was carried out for 45 min at 37° C. before termination with 50 μl PCA (2 M).
Samples were centrifuged for 3 min at 16100 g and supernatants were subjected to solid phase extraction. Solid phase extraction was performed using either SPE cartridges ISOLUTE SCX-3 (100 mg, 1 mL) or SPE 2 mL fixed 96 well plates ISOLUTE SCX-3 (100 mg) previously equilibrated with MilliQ water. Columns/plates were centrifuged at 150 g for 2 min. Eluate was discarded and matrix was washed with 1 mL of MilliQ water after which octopamine was eluted with 2×0.25 mL ammonium hydroxide (4 M). The oxidation of octopamine to p-hydroxybenzaldehyde was carried out for 6 min with 100 μl sodium periodate (2%) and was stopped with 100 μl sodium metabisulfite (10%). Absorbance was measured at 330 nm on a Spectramax microplate reader (Molecular Devices, Sunnyvale, Calif.). All enzymatic reactions were performed in duplicate. Results are reported in the table below as activity in % of control at the inhibitor concentration tested.

[1] = inhibitor 1 μM, SK-N-SH cell homogenate

Row | Compound | remaining activity at 0.1 µM (SK-N-SH cell homogenate) [%] | remaining activity at 1 µM [1] [%] | remaining activity at 10 µM (SK-N-SH cell homogenate) [%] | remaining activity at 1 µM [%]
1 | [2H]C([2H])([2H])c1[nH]c(=S)n2c1[C@@H]1C[C@]1(c1cc(Cl)ccc1F)C2 [Example 100, (5aS,6aR)-5a-(5-chloro-2-fluorophenyl)-1-(methyl-d3)-5,5a,6,6a-tetrahydrocyclopropa[3,4]pyrrolo[1,2-c]imidazole-3 (2H)-thione] | 0 | 0 |  | 
2 | Fc1ccc(Br)cc1[C@]12C[C@H]1c1n[nH]c(=S)n1C2 [Example 120, (5aS,6aR)-5a-(5-bromo-2-fluorophenyl)-5,5a,6,6a-tetrahydrocyclopropa[3,4]pyrrolo[2,1-c][1,2,4]triazole-3(2H)-thione] | 86.4 | 21.8 |  | 
3 | Fc1ccc(F)c(C23CC2CN(C(=S)NCCS)C3)c1 (stereo not shown) [Example 40, 1-(2,5-difluorophenyl)-N-(2-mercaptoethyl)-3-azabicyclo[3.1.0]hexane-3-carbothioamide] | 87.9 |  |  | 
4 | C[C@@H]1c2c[nH]c(=S)n2C[C@H]1c1c(F)c(F)cc(F)c1F [Example 107, (6R,7S)-7-methyl-6-(2,3,5,6-tetrafluorophenyl)-2,5,6,7-tetrahydro-3H-pyrrolo[1,2-c]imidazole-3-thione] |  | 54.7 |  | 
5 | Fc1cccc([C@]23C[C@H]2c2c[nH]c(=S)n2C3)c1F [Example 66, (5aS,6aR)-5a-(2,3-difluorophenyl)-5,5a,6,6a-tetrahydrocyclopropa[3,4]pyrrolo[1,2-c]imidazole-3(2H)-thione] | 51.1 | 7.9 |  | 
6 | Fc1cc(F)cc([C@]23C[C@H]2c2n[nH]c(=S)n2C3)c1 [Example 60, (5aS,6aR)-5a-(3,5-difluorophenyl)-5,5a,6,6a-tetrahydrocyclopropa[3,4]pyrrolo[2,1-c][1,2,4]triazole-3(2H)-thione] |  | 60.2 |  | 
7 | Cc1[nH]c(=S)n2c1C[C@@H](c1c(F)cccc1F)C2 [Example 98, (S)-6-(2,6-difluorophenyl)-1-methyl-2,5,6,7-tetrahydro-3H-pyrrolo[1,2-c]imidazole-3-thione] |  | 39.9 |  | 
8 | Fc1ccc(Cl)c(F)c1[C@]12C[C@H]1c1c[nH]c(=S)n1C2 [Example 90, (5aS,6aR)-5a-(3-chloro-2,6-difluorophenyl)-5,5a,6,6a-tetrahydrocyclopropa[3,4]pyrrolo[1,2-c]imidazole-3 (2H)-thione] | 1.8 | 1 |  | 
9 | Fc1cccc(F)c1[C@]12C[C@H]1c1c[nH]c(=S)n1C2 [Example 64, (5aS,6aR)-5a-(2,6-difluorophenyl)-5,5a,6,6a-tetrahydrocyclopropa[3,4]pyrrolo[1,2-c]imidazole-3(2H)-thione] | 39.9 | 7.2 |  | 
10 | [2H]C([2H])([2H])n1cc2n(c1=S)C[C@@]1(c3cc(Cl)ccc3F)C[C@@H]21 [Example 101, (5aS,6aR)-5a-(5-chloro-2-fluorophenyl)-2-(methyl-d3)-5,5a,6,6a-tetrahydrocyclopropa[3,4]pyrrolo[1,2-c]imidazole-3 (2H)-thione] | 14.5 | 0 |  | 
11 | Fc1cccc(F)c1[C@@H]1Cc2c[nH]c(=S)n2C1 [Example 84, (S)-6-(2,6-difluorophenyl)-2,5,6,7-tetrahydro-3H-pyrrolo[1,2-c]imidazole-3-thione] | 96.9 | 41.9 |  | 
12 | S=c1[nH]cc2n1C[C@@]1(c3cc(Cl)cc(Cl)c3)C[C@@H]21 [Example 109, (5aS,6aR)-5a-(3,5-dichlorophenyl)-5,5a,6,6a-tetrahydrocyclopropa[3,4]pyrrolo[1,2-c]imidazole-3 (2H)-thione] | 67.5 | 17.2 |  | 
13 | NC(=S)N1CC[C@H](c2ccccc2)C1 [Example 11, (R)-3-phenylpyrrolidine-1-carbothioamide] | 86.4 | 31.4 | 1.5 | 
14 | CN(C)C(=S)N1CC2CC2(c2cc(F)cc(F)c2)C1 (stereo not shown) [Example 46, 1-(3,5-Difluorophenyl)-N,N-dimethyl-3-azabicyclo[3.1.0]hexane-3-carbothioamide] |  | 31.6 |  | 
15 | Fc1cc(F)c(F)c([C@@H]2Cc3c[nH]c(=S)n3C2)c1 [Example 82, (S)-6-(2,3,5-trifluorophenyl)-2,5,6,7-tetrahydro-3H-pyrrolo[1,2-c]imidazole-3-thione] | 90 | 20 |  | 
16 | Cc1[nH]c(=S)n2c1[C@@H]1C[C@]1(c1c(F)ccc(Br)c1F)C2 [Example 121, (5aS,6aR)-5a-(3-bromo-2,6-difluorophenyl)-1-methyl-5,5a,6,6a-tetrahydrocyclopropa[3,4]pyrrolo[1,2-c]imidazole-3 (2H)-thione] | 5.2 | 0 |  | 
17 | Fc1ccc(F)c([C@H]2Cc3c[nH]c(=S)n3C2)c1F [Example 113, (R)-6-(2,3,6-trifluorophenyl)-2,5,6,7-tetrahydro-3H-pyrrolo[1,2-c]imidazole-3-thione] | 39.6 | 0 |  | 
18 | NC(=S)N1CCC(c2ccc(F)c(F)c2)C1 (stereo not shown) [Example 20, 3-(3,4-difluorophenyl)pyrrolidine-1-carbothioamide] |  | 44.8 |  | 
19 | Cc1[nH]c(=S)n2c1C[C@H](c1c(F)ccc(Cl)c1F)C2 [Example 104, (R)-6-(3-chloro-2,6-difluorophenyl)-1-methyl-2,5,6,7-tetrahydro-3H-pyrrolo[1,2-c]imidazole-3-thione] | 47.5 | 6 |  | 
20 | Fc1ccc(F)c([C@@]23C[C@@H]2c2c[nH]c(=S)n2C3)c1F [Example 69, (5aR,6aS)-5a-(2,3,6-trifluorophenyl)-5,5a,6,6a-tetrahydrocyclopropa[3,4]pyrrolo[1,2-c]imidazole-3 (2H)-thione] |  | 14.6 |  | 
21 | Fc1ccc([C@]23C[C@H]2c2c[nH]c(=S)n2C3)c(F)c1 [Example 70, (5aS,6aR)-5a-(2,4-difluorophenyl)-5,5a,6,6a-tetrahydrocyclopropa[3,4]pyrrolo[1,2-c]imidazole-3(2H)-thione] |  | 35.7 |  | 
22 | Fc1cccc(Cl)c1[C@]12C[C@H]1c1c[nH]c(=S)n1C2 [Example 89, (5aS,6aR)-5a-(2-chloro-6-fluorophenyl)-5,5a,6,6a-tetrahydrocyclopropa[3,4]pyrrolo[1,2-c]imidazole-3 (2H)-thione] |  | 29.8 |  | 
23 | Cc1[nH]c(=S)n2c1C[C@@H](c1cc(F)cc(F)c1)C2 [Example 95, (S)-6-(3,5-difluorophenyl)-1-methyl-2,5,6,7-tetrahydro-3H-pyrrolo[1,2-c]imidazole-3-thione] |  |  |  | 28.9
24 | NC(=S)N1CCC(c2ccc(F)cc2F)C1 (stereo not shown) [Example 5, 3-(2,4-difluorophenyl)pyrrolidine-1-carbothioamide] | 83.2 |  | 0.8 | 
25 | Fc1cccc([C@@]23C[C@@H]2c2c[nH]c(=S)n2C3)c1F [Example 67, (5aR,6aS)-5a-(2,3-difluorophenyl)-5,5a,6,6a-tetrahydrocyclopropa[3,4]pyrrolo[1,2-c]imidazole-3(2H)-thione] |  | 36.1 |  | 
